# In ChEMBL document CHEMBL1140165, “Rotationally constrained 2,4-diamino-5,6-disubstituted pyrimidines: a new class of histamine H4 receptor antagonists with improved druglikeness and in vivo efficacy in pain and inflammation models” (J Med Chem, 2008):
# The source made the active and inactive calls. No cut-off for these calls is given here.
# Molecular target: Histamine H4 receptor (Rattus norvegicus) (UniProt Q91ZY1)
# Test: Antagonist activity at rat histamine H4 receptor expressed in HEK293 cells assessed as inhibition of histamine-induced intracellular calcium elevation by FLIPR assay relative to histamine
# Format: functional, cell-based
# Settings: not given
# Histamine H4 receptor (Rattus norvegicus), sequence (Q91ZY1 whole entry): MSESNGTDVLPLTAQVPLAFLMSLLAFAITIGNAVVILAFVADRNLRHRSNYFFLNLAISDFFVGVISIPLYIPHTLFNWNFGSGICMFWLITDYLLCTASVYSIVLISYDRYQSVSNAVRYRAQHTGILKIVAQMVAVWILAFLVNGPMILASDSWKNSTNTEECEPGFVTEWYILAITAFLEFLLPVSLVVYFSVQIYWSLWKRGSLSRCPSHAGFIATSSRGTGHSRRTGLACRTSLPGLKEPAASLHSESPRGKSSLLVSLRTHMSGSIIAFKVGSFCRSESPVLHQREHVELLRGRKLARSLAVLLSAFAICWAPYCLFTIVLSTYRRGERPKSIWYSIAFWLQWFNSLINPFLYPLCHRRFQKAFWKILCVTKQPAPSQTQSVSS
row,Structure (SMILES),Efficacy [%]
1,CN1CCN(c2cc(-c3ccc(C#N)cc3)nc(N)n2)CC1,64
2,CN1CCN(c2cc(-c3ccccc3)nc(N)n2)CC1,79

# Molecular target: Histamine H4 receptor (Mus musculus) (UniProt Q91ZY2)
# Sequence (Q91ZY2 whole entry): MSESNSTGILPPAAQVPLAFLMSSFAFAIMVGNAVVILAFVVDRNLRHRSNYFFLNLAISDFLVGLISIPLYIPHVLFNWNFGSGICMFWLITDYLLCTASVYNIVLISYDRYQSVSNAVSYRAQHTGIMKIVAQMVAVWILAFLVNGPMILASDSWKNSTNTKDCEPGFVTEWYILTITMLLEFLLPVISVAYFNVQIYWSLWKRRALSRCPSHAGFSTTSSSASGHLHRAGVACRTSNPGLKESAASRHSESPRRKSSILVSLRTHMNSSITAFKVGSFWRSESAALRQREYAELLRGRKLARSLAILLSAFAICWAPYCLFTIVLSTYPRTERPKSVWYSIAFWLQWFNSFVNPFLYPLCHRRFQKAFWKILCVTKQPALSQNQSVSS
# Test: Antagonist activity at mouse histamine H4 receptor expressed in HEK293 cells assessed as inhibition of histamine-induced intracellular calcium elevation by FLIPR assay relative to histamine
# Format: functional, cell-based
# Settings: not given
row,Structure (SMILES),Efficacy [%]
1,N#Cc1ccc(-c2cc(N3CCNCC3)nc(N)n2)cc1,54

# Molecular target: T1, Histamine H4 receptor (Homo sapiens, UniProt Q9H3N8)
# T1 sequence (Q9H3N8 whole entry): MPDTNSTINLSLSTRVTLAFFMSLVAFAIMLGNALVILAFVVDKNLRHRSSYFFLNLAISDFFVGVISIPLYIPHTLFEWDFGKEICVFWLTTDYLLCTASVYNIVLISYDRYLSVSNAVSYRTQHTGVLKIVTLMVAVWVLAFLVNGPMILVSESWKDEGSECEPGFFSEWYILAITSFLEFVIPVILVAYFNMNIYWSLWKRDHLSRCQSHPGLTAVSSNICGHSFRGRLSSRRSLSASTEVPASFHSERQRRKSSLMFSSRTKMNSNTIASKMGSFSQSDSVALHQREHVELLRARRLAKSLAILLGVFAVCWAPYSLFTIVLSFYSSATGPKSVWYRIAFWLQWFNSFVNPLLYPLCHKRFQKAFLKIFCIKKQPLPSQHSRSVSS
# Test: Displacement of [3H]histamine from human histamine H4 receptor expressed in HEK293 cells
# Format: cell-based
# Settings: read-out: pKi (converted)
row,Structure (SMILES),Ki [nM]
1,CN1CCN(c2cc(-c3ccccc3)nc(N)n2)CC1,5.01

# Molecular target: Histamine H4 receptor (Rattus norvegicus, UniProt Q91ZY1)
# Sequence (Q91ZY1 whole entry): as the sequence (Q91ZY1 whole entry) above
# Test: Displacement of [3H]histamine from rat histamine H4 receptor expressed in HEK293 cells
# Format: cell-based
# Settings: not given
row,Structure (SMILES),Ki [nM]
1,CN1CCN(c2cc(-c3ccccc3)nc(N)n2)CC1,14.1

# Test system: BMMC
# Test: Blockade of histamine-induced morphological changes in BALB/c mouse BMMC by flow cytometry
# Format: functional, cell-based
# Settings: not given
row,Structure (SMILES),Activity
1,CN1CCN(c2cc(-c3ccc(C#N)cc3)nc(N)n2)CC1,Active

# Test system: not listed separately
# Test: Selectivity ratio of Ki for human histamine H4 receptor to Ki for histamine H1 receptor
# Settings: not given
row,Structure (SMILES),Ratio Ki
1,CN1CCN(c2cc(-c3ccc(C#N)cc3)nc(N)n2)CC1,> 170

# Test system: not listed separately
# Test: Selectivity ratio of Ki for human histamine H4 receptor to Ki for histamine H2 receptor
# Settings: not given
row,Structure (SMILES),Ratio Ki
1,CN1CCN(c2cc(-c3ccc(C#N)cc3)nc(N)n2)CC1,> 260

# Species: Homo sapiens
# Test: Selectivity ratio of Ki for human histamine H4 receptor to Ki for human histamine H3 receptor
# Settings: not given
row,Structure (SMILES),Ratio Ki
1,CN1CCN(c2cc(-c3ccc(C#N)cc3)nc(N)n2)CC1,30

# Test system: not listed separately
# Test: Selectivity ratio of Ki for human histamine H4 receptor to Ki for 5HT1A receptor
# Settings: not given
row,Structure (SMILES),Ratio Ki
1,CN1CCN(c2cc(-c3ccc(C#N)cc3)nc(N)n2)CC1,1.2

# Test system: not listed separately
# Test: Selectivity ratio of Ki for human histamine H4 receptor to Ki for 5HT1D receptor
# Settings: not given
row,Structure (SMILES),Ratio Ki
1,CN1CCN(c2cc(-c3ccc(C#N)cc3)nc(N)n2)CC1,3.5

# Test system: not listed separately
# Test: Selectivity ratio of Ki for human histamine H4 receptor to Ki for 5HT2A receptor
# Settings: not given
row,Structure (SMILES),Ratio Ki
1,CN1CCN(c2cc(-c3ccc(C#N)cc3)nc(N)n2)CC1,120

# Test system: not listed separately
# Test: Selectivity ratio of Ki for human histamine H4 receptor to Ki for dopamine D2 receptor
# Settings: not given
row,Structure (SMILES),Ratio Ki
1,CN1CCN(c2cc(-c3ccc(C#N)cc3)nc(N)n2)CC1,> 140

# Test system: not listed separately
# Test: Selectivity ratio of Ki for human histamine H4 receptor to Ki for adrenergic alpha1 receptor
# Settings: not given
row,Structure (SMILES),Ratio Ki
1,CN1CCN(c2cc(-c3ccc(C#N)cc3)nc(N)n2)CC1,330

# Test system: Liver microsomes
# Test: Metabolic stability in rat liver microsomes
# Format: ADME, Microsome
# Settings: not given
row,Structure (SMILES),Stability [pmol/min/mg]
1,CN1CCN(c2cc(-c3ccc(C#N)cc3)nc(N)n2)CC1,94.5
2,N#Cc1ccc(-c2cc(N3CCNCC3)nc(N)n2)cc1,26.9
3,CN1CCN(c2cc(-c3ccccc3)nc(N)n2)CC1,168

# Test system: Liver microsomes
# Test: Metabolic stability in human liver microsomes
# Format: ADME, Microsome
# Settings: not given
row,Structure (SMILES),Stability [pmol/min/mg]
1,CN1CCN(c2cc(-c3ccc(C#N)cc3)nc(N)n2)CC1,25.9
2,N#Cc1ccc(-c2cc(N3CCNCC3)nc(N)n2)cc1,6.2
3,CN1CCN(c2cc(-c3ccccc3)nc(N)n2)CC1,22

# Test system: not listed separately
# Test: Metabolic stability in mouse liver microsomes
# Format: ADME, Microsome
# Settings: not given
row,Structure (SMILES),Stability [pmol/min/mg]
1,CN1CCN(c2cc(-c3ccc(C#N)cc3)nc(N)n2)CC1,43.1
2,N#Cc1ccc(-c2cc(N3CCNCC3)nc(N)n2)cc1,23.2
3,CN1CCN(c2cc(-c3ccccc3)nc(N)n2)CC1,119

# Test system: not listed separately
# Test: Protein binding in rat
# Format: ADME, organism-based
# Settings: in vivo, read-out: PB (converted)
row,Structure (SMILES),fraction unbound
1,CN1CCN(c2cc(-c3ccc(C#N)cc3)nc(N)n2)CC1,0.62
2,N#Cc1ccc(-c2cc(N3CCNCC3)nc(N)n2)cc1,0.96
3,CN1CCN(c2cc(-c3ccccc3)nc(N)n2)CC1,0.35

# Test system: not listed separately
# Test: Protein binding in human
# Format: ADME, organism-based
# Settings: in vivo, read-out: PB (converted)
row,Structure (SMILES),fraction unbound
1,CN1CCN(c2cc(-c3ccc(C#N)cc3)nc(N)n2)CC1,0.65
2,N#Cc1ccc(-c2cc(N3CCNCC3)nc(N)n2)cc1,0.93
3,CN1CCN(c2cc(-c3ccccc3)nc(N)n2)CC1,0.51

# Molecular target: Cytochrome P450 3A4 (Homo sapiens, UniProt P08684)
# Sequence (P08684 whole entry): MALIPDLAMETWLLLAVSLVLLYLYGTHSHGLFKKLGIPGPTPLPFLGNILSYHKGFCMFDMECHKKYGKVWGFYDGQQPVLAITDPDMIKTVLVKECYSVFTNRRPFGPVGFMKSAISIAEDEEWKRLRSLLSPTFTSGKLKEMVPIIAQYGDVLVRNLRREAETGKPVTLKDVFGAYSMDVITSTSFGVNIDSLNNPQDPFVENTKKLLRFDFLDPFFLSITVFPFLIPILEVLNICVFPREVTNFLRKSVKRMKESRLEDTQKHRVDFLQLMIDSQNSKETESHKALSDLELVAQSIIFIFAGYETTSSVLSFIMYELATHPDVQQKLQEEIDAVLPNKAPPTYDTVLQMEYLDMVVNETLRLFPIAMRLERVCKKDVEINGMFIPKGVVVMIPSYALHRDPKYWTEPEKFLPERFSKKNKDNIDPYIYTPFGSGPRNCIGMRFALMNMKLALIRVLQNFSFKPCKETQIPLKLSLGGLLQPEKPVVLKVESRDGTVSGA
# Test: Inhibition of CYP3A4 upto 10 uM
# Format: ADME
# Settings: not given
row,Structure (SMILES),Activity
1,CN1CCN(c2cc(-c3ccc(C#N)cc3)nc(N)n2)CC1,Not Active
2,N#Cc1ccc(-c2cc(N3CCNCC3)nc(N)n2)cc1,Not Active
3,CN1CCN(c2cc(-c3ccccc3)nc(N)n2)CC1,Not Active

# Molecular target: Cytochrome P450 2D6 (Homo sapiens, UniProt P10635)
# Sequence (P10635 whole entry): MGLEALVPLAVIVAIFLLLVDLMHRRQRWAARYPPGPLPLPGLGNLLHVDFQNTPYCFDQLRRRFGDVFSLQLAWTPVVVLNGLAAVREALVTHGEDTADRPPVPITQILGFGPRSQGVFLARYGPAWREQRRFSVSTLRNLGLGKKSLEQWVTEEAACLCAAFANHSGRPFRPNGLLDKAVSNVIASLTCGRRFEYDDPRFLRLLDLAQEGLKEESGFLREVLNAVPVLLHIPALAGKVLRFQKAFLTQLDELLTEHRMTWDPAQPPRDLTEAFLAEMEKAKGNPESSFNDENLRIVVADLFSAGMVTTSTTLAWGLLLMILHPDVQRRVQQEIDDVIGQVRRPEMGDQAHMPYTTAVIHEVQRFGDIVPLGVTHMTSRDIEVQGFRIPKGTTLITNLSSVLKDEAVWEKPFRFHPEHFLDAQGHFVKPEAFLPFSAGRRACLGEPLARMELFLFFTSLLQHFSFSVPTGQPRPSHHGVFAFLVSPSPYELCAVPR
# Test: Inhibition of CYP2D6 upto 10 uM
# Format: ADME
# Settings: not given
row,Structure (SMILES),Activity
1,CN1CCN(c2cc(-c3ccc(C#N)cc3)nc(N)n2)CC1,Not Active
2,N#Cc1ccc(-c2cc(N3CCNCC3)nc(N)n2)cc1,Not Active
3,CN1CCN(c2cc(-c3ccccc3)nc(N)n2)CC1,Not Active

# Molecular target: Cytochrome P450 2C9 (Homo sapiens, UniProt P11712)
# Sequence (P11712 whole entry): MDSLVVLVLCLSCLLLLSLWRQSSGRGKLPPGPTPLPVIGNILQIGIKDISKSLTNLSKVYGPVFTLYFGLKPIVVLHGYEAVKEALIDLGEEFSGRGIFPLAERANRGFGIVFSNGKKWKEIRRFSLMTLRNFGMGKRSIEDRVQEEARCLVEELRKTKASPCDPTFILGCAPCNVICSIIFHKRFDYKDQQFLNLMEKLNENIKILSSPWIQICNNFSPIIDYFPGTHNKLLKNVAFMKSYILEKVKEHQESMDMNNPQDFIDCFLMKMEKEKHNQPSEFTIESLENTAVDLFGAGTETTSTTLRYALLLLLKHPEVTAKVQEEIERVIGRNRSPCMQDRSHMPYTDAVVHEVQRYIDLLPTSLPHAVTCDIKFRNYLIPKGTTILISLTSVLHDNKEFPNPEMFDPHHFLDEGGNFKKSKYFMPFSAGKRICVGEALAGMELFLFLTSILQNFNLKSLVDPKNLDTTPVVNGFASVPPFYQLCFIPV
# Test: Inhibition of CYP2C9 upto 10 uM
# Format: ADME
# Settings: not given
row,Structure (SMILES),Activity
1,CN1CCN(c2cc(-c3ccc(C#N)cc3)nc(N)n2)CC1,Not Active
2,N#Cc1ccc(-c2cc(N3CCNCC3)nc(N)n2)cc1,Not Active
3,CN1CCN(c2cc(-c3ccccc3)nc(N)n2)CC1,Not Active

# Test system: not listed separately
# Test: Half life in rat at 10 mg/kg, iv
# Format: ADME, organism-based
# Parameters: dose 10 mg/kg, route intravenous
# Settings: in vivo
row,Structure (SMILES),half-life [min]
1,CN1CCN(c2cc(-c3ccc(C#N)cc3)nc(N)n2)CC1,24

# Test system: not listed separately
# Test: Blood clearance in rat at 10 mg/kg, iv
# Format: ADME, organism-based
# Parameters: dose 10 mg/kg, route intravenous
# Settings: whole blood
row,Structure (SMILES),clearance [mL/min/kg]
1,CN1CCN(c2cc(-c3ccc(C#N)cc3)nc(N)n2)CC1,172

# Test system: not listed separately
# Test: Terminal volume of distribution in rat at 10 mg/kg, iv
# Format: ADME, organism-based
# Parameters: dose 10 mg/kg, route intravenous
# Settings: in vivo, read-out: Vbeta
row,Structure (SMILES),Vd [L/kg]
1,CN1CCN(c2cc(-c3ccc(C#N)cc3)nc(N)n2)CC1,7.1

# Test system: not listed separately
# Test: Fractional bioavailability in rat at 10 mg/kg, iv and 10 mg/kg, po
# Format: ADME, organism-based
# Settings: in vivo
row,Structure (SMILES),bioavailability [%]
1,CN1CCN(c2cc(-c3ccc(C#N)cc3)nc(N)n2)CC1,31

# Test system: not listed separately
# Test: Half life in mouse at 2.5 mg/kg, iv
# Format: ADME, organism-based
# Parameters: dose 2.5 mg/kg, route intravenous
# Settings: in vivo
row,Structure (SMILES),half-life [min]
1,CN1CCN(c2cc(-c3ccc(C#N)cc3)nc(N)n2)CC1,12

# Test system: not listed separately
# Test: Ratio of drug level in brain to plasma in rat at 10 mg/kg, iv after 30 mins
# Format: ADME, organism-based
# Parameters: dose 10 mg/kg, route intravenous
# Settings: not given
row,Structure (SMILES),Kp at 0.5 h
1,CN1CCN(c2cc(-c3ccc(C#N)cc3)nc(N)n2)CC1,20

# Test system: Mus musculus
# Test: Antiinflammatory activity against ip dosed BALB/c mouse assessed as inhibition of zymosan-induced peritonitis after 2 hrs pretreated 30 mins before zymosan challenge
# Format: functional
# Settings: not given
row,Structure (SMILES),ED50 [µmol/kg]
1,CN1CCN(c2cc(-c3ccc(C#N)cc3)nc(N)n2)CC1,66

# Test system: Mus musculus
# Test: Inhibition of clobenpropit-induced itching in ip dosed CD1/ICR mouse assessed as blockade of scratching in hind paw for 25 mins pretreated 30 mins before clobenpropit challenge
# Format: functional
# Settings: not given
row,Structure (SMILES),ED50 [µmol/kg]
1,CN1CCN(c2cc(-c3ccc(C#N)cc3)nc(N)n2)CC1,25

# Test system: Rattus norvegicus
# Test: Antinociceptive efficacy in ip dosed spinal nerve ligated Sprague-Dawley rat assessed as reduction of neuropathic pain in paw
# Format: functional
# Settings: not given
row,Structure (SMILES),ED50 [µmol/kg]
1,CN1CCN(c2cc(-c3ccc(C#N)cc3)nc(N)n2)CC1,115

# Molecular target: T1, Histamine H4 receptor
# Settings: HEK293
row,Structure (SMILES),pKb
1,N#Cc1ccc(-c2cc(N3CCNCC3)nc(N)n2)cc1,8.08
2,CN1CCN(c2cc(-c3ccccc3)nc(N)n2)CC1,8.39
